Format in all cases: cell-based
Assay [1] concerns Stapylococcus aureus. Put plainly: agar diffusion test. The conditions noted are these: 10 μg/9 mm Ø plate. For orientation: A growth-free zone around the sample is the usual read-out of agar diffusion tests.
The subject of assay [2] is Escherichia coli. Put plainly: agar diffusion test. The conditions noted are these: 10 μg/9 mm Ø plate.
The test system of assay [3] is Bacillus subtillis. The assay can be described thus: agar diffusion test. The conditions noted are these: 10 μg/9 mm Ø plate.
Another assay has as its system Candida albicans. Put plainly: agar diffusion test. Particulars: 10 μg/9 mm Ø plate.
In another assay the test system is Mucor miehei. The assay can be described thus: agar diffusion test. Particulars: 10 μg/9 mm Ø plate.
Assay [4] relates to Stapylococcus aureus. Put plainly: dilution method MIC.
For assay [5], the system named is Escherichia coli. Put plainly: dilution method MIC.
Assay [6] deals with Bacillus subtillis. The assay can be described thus: dilution method MIC.
The subject of the next assay is Chlorella sorokiniana. Put plainly: dilution method MIC.
A further assay concerns Scenedesmus subspicatus. Put plainly: dilution method MIC.

The record followed here is patent US20060111309A1, “Chalcomycin derivatives” (Biofrontera Discovery GmbH, priority 2002, published 2006).

Values after ≈ are worked out from the molar mass of the structure shown. Where only a bound is given, the exact number is not on record here.

On to `CC[C@H]1OC(=O)[C@H](C)[C@@H](O[C@H]2C[C@@](C)(OC)[C@@H](O)[C@H](C)O2)[C@H](C)[C@@H](O[C@@H]2O[C@H](C)C[C@H](N(C)C)[C@H]2O)[C@](C)(O)C[C@@H](C)C(=O)[C@H](C)[C@@H](O)[C@]1(C)O` [E, erythromycin], for which the “diameter of the inhibition zone, SA” value in the assay with Stapylococcus aureus [1] is 24 mm. For the same compound, the “diameter of the inhibition zone, EC” value in the assay with Escherichia coli [2] amounted to 30 mm. The “diameter of the inhibition zone, BS” value in the assay on Bacillus subtillis [3] is given as 22 mm.
Turning to `CO[C@@H]1[C@H](O)[C@@H](C)O[C@@H](OC[C@H]2[C@@H]3O[C@H]3/C=C/C(=O)[C@@](C)(O)C[C@H](C)[C@H](O[C@@H]3O[C@H](C)C[C@H](OC)[C@H]3O)[C@@H](C)/C=C/C(=O)O[C@@H]2C)[C@@H]1OC` [1a, Chalcomycin], the “diameter of the inhibition zone, SA” value in the assay on Stapylococcus aureus [1] amounted to 30 mm. Besides, in the assay with Escherichia coli [2], the “diameter of the inhibition zone, EC” value stood at 32 mm. In addition, the “diameter of the inhibition zone, BS” value in the assay on Bacillus subtillis [3] is on record as 25 mm. Also, the “diameter of the inhibition zone, CA” value with Candida albicans is recorded as 0 mm. Further, the “diameter of the inhibition zone, MM” value in the assay on Mucor miehei is listed as 0 mm. In the assay on Stapylococcus aureus [4], the “MIC, SA” value was found to be 0.39 µg/mL (≈ 0.556 µM). Further, in the assay with Escherichia coli [5], the “MIC, EC” value was >50 µg/mL. In addition, the “MIC, BS” value with Bacillus subtillis [6] came to 6.25 µg/mL (≈ 8.92 µM). Moreover, in the assay with Chlorella sorokiniana, the “MIC, CS” value was 50 µg/mL (≈ 71.3 µM). The “MIC, SS” value with Scenedesmus subspicatus was 50 µg/mL (≈ 71.3 µM).
Consider chalcomycin B [1b], for which the “diameter of the inhibition zone, SA” value in the assay with Stapylococcus aureus [1] was found to be 23 mm. In the assay with Escherichia coli [2], the “diameter of the inhibition zone, EC” value is on record as 28 mm. Further, in the assay with Bacillus subtillis [3], the “diameter of the inhibition zone, BS” value is reported as 21 mm. Also, the “diameter of the inhibition zone, CA” value in the assay with Candida albicans was found to be 0 mm. For the same compound, the “diameter of the inhibition zone, MM” value in the assay on Mucor miehei is reported as 0 mm. In the assay with Stapylococcus aureus [4], the “MIC, SA” value was 0.39 µg/mL. In the assay on Escherichia coli [5], the “MIC, EC” value was >50 µg/mL. In addition, in the assay on Bacillus subtillis [6], the “MIC, BS” value is 6.25 µg/mL. Further, in the assay on Chlorella sorokiniana, the “MIC, CS” value came to 50 µg/mL. Besides, the “MIC, SS” value in the assay on Scenedesmus subspicatus was 50 µg/mL.
